In US11725036B2, “Modified lipidated relaxin B chain peptides and their therapeutic use” (Sanofi, priority 2018, dated 2023) one finds EC50 and Emax data, which are given here for six compounds.

This assay deals with T1, RXFP1 (Homo sapiens, UniProt Q9HBX9).
T1 construct: OVCAR5 cells expressing endogenous RXFP1; endogenous in cells; host or cells: OVCAR5
T1 sequence (Q9HBX9 1-757): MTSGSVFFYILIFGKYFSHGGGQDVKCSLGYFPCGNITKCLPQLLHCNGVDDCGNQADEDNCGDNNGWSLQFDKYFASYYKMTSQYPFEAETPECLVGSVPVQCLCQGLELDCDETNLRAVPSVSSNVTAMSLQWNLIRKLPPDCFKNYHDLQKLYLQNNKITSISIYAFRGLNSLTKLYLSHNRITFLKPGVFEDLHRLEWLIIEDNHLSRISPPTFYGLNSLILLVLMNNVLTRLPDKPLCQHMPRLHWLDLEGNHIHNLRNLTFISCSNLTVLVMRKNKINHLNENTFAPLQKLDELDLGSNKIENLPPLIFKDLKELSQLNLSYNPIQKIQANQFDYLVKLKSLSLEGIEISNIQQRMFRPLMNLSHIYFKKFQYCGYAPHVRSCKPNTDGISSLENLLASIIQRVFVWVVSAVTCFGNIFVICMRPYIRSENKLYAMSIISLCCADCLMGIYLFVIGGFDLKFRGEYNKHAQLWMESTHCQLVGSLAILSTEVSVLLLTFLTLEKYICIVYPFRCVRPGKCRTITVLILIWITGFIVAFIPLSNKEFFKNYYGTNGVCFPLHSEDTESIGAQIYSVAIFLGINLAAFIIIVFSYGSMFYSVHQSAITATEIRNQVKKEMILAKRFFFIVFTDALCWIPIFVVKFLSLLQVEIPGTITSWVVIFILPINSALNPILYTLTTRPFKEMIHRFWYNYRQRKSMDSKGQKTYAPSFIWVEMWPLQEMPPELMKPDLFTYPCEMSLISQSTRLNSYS
Nature of the assay: OVCAR5 cAMP assay (HTRF). To be noted: for EC50: OVCAR 5 cells expressing endogenous RXFP1, cAMP readout; for Emax: OVCAR 5 cells, maximal cAMP relative to H2-relaxin. The class given is cell-based. An excerpt:
OVCAR5 cells expressing endogenous RXFP1 were used to test RXP1 agonist properties of peptides of the invention, and in particular of the peptides of sequence SEQ ID NO: 1-97.
Since RXFP1 is a Gs coupled GPCR, cAMP was used as readout of RXFP1 activation.
Isobutyl Methyl Xanthine (IBMX) was used to inhibit phosphodiesterase activity facilitating cAMP measurements. HTRF (Homogenous Time Resolved Fluorescence) technology was used to detect cAMP due to its great sensitivity.
In summary, OVCAR5 were grown in regular medium (RPMI) containing 10% fetal calf serum (FCS) and 1% antibiotics (penicillin/streptomycin).
Before the experiments, cells were detached with accutase and incubated for 40 minutes at 37° C. with 1 mM (3-isobutyl-1-methylxanthine) IBMX.
Cells were then distributed in 384 black well plates containing increasing concentrations of the different peptides in a fix volume of medium (without FCS).
After an incubation of 30 min at 37° C. in an humid incubator in 5% CO2, the reaction was stopped by adding a fixed volume of a solution containing a lysis buffer and cAMP-D2 (cAMP labeled with the dye d2) and the anti cAMP antibody linked to Europium and used for cAMP detection.
Readout of the experiment were performed on a fluorimeter allowing HTRF measurement. Activation curves were generated by plotting the intracellular value of cAMP versus log 10 of the compound concentration.
The 50% activation concentration (EC50) was calculated by nonlinear regression using the sigmoidal dose-response (variable slope) equation with Prism 5 software.
Emax % was determined as the maximal intracellular value of cAMP for test compound (upper limit of cAMP vs concentration curve) divided by the maximal intracellular value of cAMP for H2-relaxin determined in the same test occasion multiplied by 100. Emax %=100×[cAMPtest cpd]/[cAMPH2-Rlx]
(Changes in cAMP serve as a functional read-out for many G protein-coupled receptors.)

The structures appear in SMILES notation. Starred links: 1 amine or outer side, 2 acyl side, 3 side chain; linkers in the order of their positions; H or OH if unused. Non-standard residues stand in square brackets, D forms with d. Residues, ends and D or L forms follow the SMILES beside them. Groups on a side chain read outwards from the residue. *: point of attachment. X1 = CCCCCCCCCCCCCCCC(=O)N[C@@H](CCC(=O)N[C@@H](CCC(=O)N[C@@H](CCC(=O)NCCCOCCOCCOCCCNC(=O)CCC(=O)NCCCOCCOCCOCCCNC(=O)CCC(=O)NCCCOCCOCCOCCCN*)C(=O)O)C(=O)O)C(=O)O; Cit = NC(=O)NCCC[C@H](N)C(=O)O; Suc = O=C(CCC(=O)[*:2])[*:1]; αMeK = C[C@](N)(CCCCN)C(=O)O; Aib = CC(C)(N)C(=O)O

Broadly, the EC50 is the concentration giving half of the maximal effect. A high value points to a less potent agent. The Emax is the greatest response seen or fitted, relative to the assay's reference. Compound `CCCCCCCCCCCCCCCC(=O)N[C@@H](CCC(=O)N[C@@H](CCC(=O)N[C@@H](CCC(=O)NCCCOCCOCCOCCCNC(=O)CCC(=O)NCCCOCCOCCOCCCNC(=O)CCC(=O)NCCCOCCOCCOCCCNC(=O)CCC(=O)NCCCC[C@H](NC(=O)CNC(=O)[C@H](CCC(=O)O)NC(=O)C(C)(C)NC(=O)C(C)(C)NC(=O)[C@@H](NC(=O)[C@H](CCCCNC(C)=O)NC(=O)[C@H](C)NC(=O)[C@H](CCCNC(=N)N)NC(=O)[C@@H](NC(=O)[C@H](CCCCN)NC(=O)[C@H](CCC(=O)O)NC(=O)[C@H](CCCNC(=N)N)NC(=O)CNC(=O)[C@H](CCC(=O)O)NC(=O)[C@H](CCCCNC(C)=O)NC(C)=O)C(C)C)[C@@H](C)CC)C(=O)N[C@@H](CO)C(=O)N[C@H](C(=O)N[C@@H](Cc1ccccc1)C(=O)N[C@@H](CO)C(=O)N[C@@](C)(CCCCN)C(=O)N[C@@H](CCCNC(=N)N)C(=O)N[C@@H](C)C(=O)N[C@@H](CCCCNC(C)=O)C(N)=O)[C@@H](C)O)C(=O)O)C(=O)O)C(=O)O` [compound 81] (Ac-K(Ac)EGREKVRAK(Ac)I[Aib][Aib]EGK([Suc-X1])STFS[αMeK]RAK(Ac)-NH2) registered an EC50 of 0.16 nM and an Emax of 98%. With `CCCCCCCCCCCCCCCC(=O)N[C@@H](CCC(=O)N[C@@H](CCC(=O)N[C@@H](CCC(=O)NCCCOCCOCCOCCCNC(=O)CCC(=O)NCCCOCCOCCOCCCNC(=O)CCC(=O)NCCCOCCOCCOCCCNC(=O)CCC(=O)NCCCC[C@H](NC(=O)CNC(=O)[C@H](CCC(=O)O)NC(=O)C(C)(C)NC(=O)C(C)(C)NC(=O)[C@@H](NC(=O)[C@H](CCCCNC(C)=O)NC(=O)[C@H](C)NC(=O)[C@H](CCCNC(=N)N)NC(=O)[C@@H](NC(=O)[C@H](CCCCN)NC(=O)[C@H](CCC(=O)O)NC(=O)[C@H](CCCNC(=N)N)NC(=O)CNC(=O)[C@H](CCC(=O)O)NC(=O)[C@H](CC(C)C)NC(C)=O)C(C)C)[C@@H](C)CC)C(=O)N[C@@H](CO)C(=O)N[C@@H](CCCCN)C(=O)N[C@@H](Cc1ccccc1)C(=O)N[C@@H](CO)C(=O)NC(C)(C)C(=O)N[C@@H](CCCNC(=N)N)C(=O)N[C@@H](CCCCN)C(=O)N[C@@H](CCCCNC(C)=O)C(N)=O)C(=O)O)C(=O)O)C(=O)O` [compound 79] (Ac-LEGREKVRAK(Ac)I[Aib][Aib]EGK([Suc-X1])SKFS[Aib]RKK(Ac)-NH2), the EC50 was determined as 0.45 nM and the Emax stood at 95%. In turn, `CCCCCCCCCCCCCCCC(=O)N[C@@H](CCC(=O)N[C@@H](CCC(=O)N[C@@H](CCC(=O)NCCCOCCOCCOCCCNC(=O)CCC(=O)NCCCOCCOCCOCCCNC(=O)CCC(=O)NCCCOCCOCCOCCCNC(=O)CCC(=O)NCCCC[C@H](NC(=O)CNC(=O)[C@H](CCC(=O)O)NC(=O)C(C)(C)NC(=O)C(C)(C)NC(=O)[C@@H](NC(=O)[C@H](CCCCNC(C)=O)NC(=O)[C@H](C)NC(=O)[C@H](CCCNC(=N)N)NC(=O)[C@@H](NC(=O)[C@H](CCCNC(=N)N)NC(=O)[C@H](CCC(=O)O)NC(=O)[C@H](CCCNC(=N)N)NC(=O)CNC(=O)[C@H](CCC(=O)O)NC(=O)[C@H](CC(C)C)NC(C)=O)C(C)C)[C@@H](C)CC)C(=O)N[C@@H](CO)C(=O)N[C@H](C(=O)N[C@@H](Cc1ccccc1)C(=O)N[C@@H](CO)C(=O)N[C@@](C)(CCCCN)C(=O)N[C@@H](CCCNC(=N)N)C(=O)N[C@@H](C)C(=O)N[C@@H](CCCCNC(C)=O)C(N)=O)[C@@H](C)O)C(=O)O)C(=O)O)C(=O)O` [compound 27] (Ac-LEGRERVRAK(Ac)I[Aib][Aib]EGK([Suc-X1])STFS[αMeK]RAK(Ac)-NH2) yielded an EC50 of 1.8 nM and an Emax of 98%. The like results for `CCCCCCCCCCCCCCCC(=O)N[C@@H](CCC(=O)N[C@@H](CCC(=O)N[C@@H](CCC(=O)NCCCOCCOCCOCCCNC(=O)CCC(=O)NCCCOCCOCCOCCCNC(=O)CCC(=O)NCCCOCCOCCOCCCNC(=O)CCC(=O)NCCCC[C@H](NC(=O)CNC(=O)[C@H](CCC(=O)O)NC(=O)C(C)(C)NC(=O)C(C)(C)NC(=O)[C@@H](NC(=O)[C@H](CCCCNC(C)=O)NC(=O)C(C)(C)NC(=O)[C@H](CCCNC(=N)N)NC(=O)[C@@H](NC(=O)[C@H](CCCNC(=N)N)NC(=O)[C@H](CCC(=O)O)NC(=O)[C@H](CCCNC(=N)N)NC(=O)CNC(=O)[C@H](CCC(=O)O)NC(=O)[C@H](CC(C)C)NC(C)=O)C(C)C)[C@@H](C)CC)C(=O)N[C@@H](CO)C(=O)N[C@H](C(=O)N[C@@H](Cc1c[nH]c2ccccc12)C(=O)N[C@@H](CO)C(=O)NC(C)(C)C(=O)N[C@@H](CCCNC(=N)N)C(=O)N[C@@H](CCCNC(=N)N)C(=O)N[C@@H](CCCCNC(C)=O)C(N)=O)[C@@H](C)O)C(=O)O)C(=O)O)C(=O)O` [compound 85] (Ac-LEGRERVR[Aib]K(Ac)I[Aib][Aib]EGK([Suc-X1])STWS[Aib]RRK(Ac)-NH2) were, in that order, 0.3 nM and 92%. `CCCCCCCCCCCCCCCC(=O)N[C@@H](CCC(=O)N[C@@H](CCC(=O)N[C@@H](CCC(=O)NCCCOCCOCCOCCCNC(=O)CCC(=O)NCCCOCCOCCOCCCNC(=O)CCC(=O)NCCCOCCOCCOCCCNC(=O)CCC(=O)NCCCC[C@H](NC(=O)CNC(=O)[C@H](CCC(=O)O)NC(=O)C(C)(C)NC(=O)C(C)(C)NC(=O)[C@@H](NC(=O)[C@H](CCCCNC(C)=O)NC(=O)[C@H](C)NC(=O)[C@H](CCCNC(=N)N)NC(=O)[C@@H](NC(=O)[C@H](CCCCN)NC(=O)[C@H](CCC(=O)O)NC(=O)[C@H](CCCNC(=N)N)NC(=O)CNC(=O)[C@H](CCC(=O)O)NC(=O)[C@H](CC(C)C)NC(C)=O)C(C)C)[C@@H](C)CC)C(=O)N[C@@H](CO)C(=O)N[C@H](C(=O)N[C@@H](Cc1c[nH]c2ccccc12)C(=O)N[C@@H](CO)C(=O)NC(C)(C)C(=O)N[C@@H](CCCNC(=N)N)C(=O)N[C@@H](CCCNC(=N)N)C(=O)N[C@@H](CCCCNC(C)=O)C(N)=O)[C@@H](C)O)C(=O)O)C(=O)O)C(=O)O` [compound 31] (Ac-LEGREKVRAK(Ac)I[Aib][Aib]EGK([Suc-X1])STWS[Aib]RRK(Ac)-NH2): the Emax was found to be 94%. With `CCCCCCCCCCCCCCCC(=O)N[C@@H](CCC(=O)N[C@@H](CCC(=O)N[C@@H](CCC(=O)NCCCOCCOCCOCCCNC(=O)CCC(=O)NCCCOCCOCCOCCCNC(=O)CCC(=O)NCCCOCCOCCOCCCNC(=O)CCC(=O)NCCCC[C@H](NC(=O)CNC(=O)[C@H](CCC(=O)O)NC(=O)C(C)(C)NC(=O)C(C)(C)NC(=O)[C@@H](NC(=O)[C@H](CCCNC(N)=O)NC(=O)[C@H](C)NC(=O)[C@H](CCCNC(=N)N)NC(=O)[C@@H](NC(=O)[C@H](CCCCN)NC(=O)[C@H](CCC(=O)O)NC(=O)[C@H](CCCNC(=N)N)NC(=O)CNC(=O)[C@H](CCC(=O)O)NC(=O)[C@H](CC(C)C)NC(C)=O)C(C)C)[C@@H](C)CC)C(=O)N[C@@H](CO)C(=O)N[C@H](C(=O)N[C@@H](Cc1ccccc1)C(=O)N[C@@H](CO)C(=O)N[C@@](C)(CCCCN)C(=O)N[C@@H](CCCNC(=N)N)C(=O)N[C@@H](C)C(=O)N[C@@H](CCCCNC(C)=O)C(N)=O)[C@@H](C)O)C(=O)O)C(=O)O)C(=O)O` [compound 12] (Ac-LEGREKVRA[Cit]I[Aib][Aib]EGK([Suc-X1])STFS[αMeK]RAK(Ac)-NH2), the EC50 came out at 0.93 nM and the maximal effect (Emax) amounted to 90%.
